# Measured values: patent US20220401514A1, “ANTIMICROBIAL, BACTERIOPHAGE-DERIVED POLYPEPTIDES AND THEIR USE AGAINST GRAM-NEGATIVE AND ACID-FAST BACTERIA” (CONTRAFECT CORPORATION, priority 2019, published 2022)
# Like-named read-outs stand apart in the source and are kept apart here.
# Tests used:
# M. intracellulare = test: 45 hr MIC against M. intracellulare (NTM); type: cell-based, Mycobacterium intracellulare; conditions: M. intracellulare (Cuttino and McCabe) Runyon ATCC 13950
# [1] = system: P. aeruginosa strain CFS-1292; test: MIC in presence and absence of NaCl (140 mM); type: cell-based, Pseudomonas aeruginosa
# Procedure: Certain Chp peptides were evaluated over a range of physiological NaCl levels and pH values, and were further evaluated for activity in the presence of various divalent cations.
# S. maltophilia = test: MIC against S. maltophilia isolates; type: cell-based, Stenotrophomonas maltophilia; conditions: S. maltophilia isolates (n per peptide in table)
# Outline: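 MIC in μg/mL for Chp peptides across several S. maltophilia isolates, n denoting the number of isolates tested.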
# [2] = system: Mycobacterium tuberculosis strains
# Procedure: MIC values for various Chp peptides were determined using the CLSI method for broth microdilution in 96-well microtiter format.
# Next, MIC values for various Chp peptides were determined using the CLSI method above for broth microdilution in 96-well microtiter format for two different Mycobacterium tuberculosis strains. The MIC was determined as explained above for the NTM strains.
# [3] = system: M. kansasii Hauduroy ATCC 12478; test: 45 hr MIC against M. kansasii (NTM), Mueller Hinton broth; type: cell-based, Mycobacterium kansasii
# Enterobacter cloacae = test: microbe, parasite or virus in culture; type: cell-based
# Outline: (§1)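 Medium: CAA with added human serum. Peptides tested for minimal inhibitory concentration against each strain.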
# Escherichia coli = test: microbe, parasite or virus in culture; type: cell-based
# Outline: as §1
# Klebsiella pneumoniae [4] = type: cell-based
# Procedure: (§2) Determination of Minimal Inhibitory Concentrations (MIC).
# Additional MIC testing was performed for several peptides against the ESKAPE pathogens Escherichia coli, Enterobacter cloacae, Klebsiella pneumoniae, and Acinetobacter baumannii, in CAA supplemented with human serum (Table D).
# Klebsiella pneumoniae [5] = test: microbe, parasite or virus in culture; type: cell-based; conditions: CAA without human serum
# [6] = system: carbapenem-resistant bacterial strains; test: organism not typed; type: cell-based
# Description: as §2
# M. avium = test: 45 hr MIC against M. avium (NTM); type: cell-based, Mycobacterium avium; conditions: M. avium Chester ATCC 700898
# M. fortuitum = test: 45 hr MIC against M. fortuitum (NTM); type: cell-based, Mycobacterium fortuitum; conditions: M. fortuitum subsp. Fortuitum da Costa Cruz. ATCC 6841
# Acinetobacter baumannii = test: microbe, parasite or virus in culture; type: cell-based
# M. smegmatis = test: 45 hr MIC against M. smegmatis (NTM), Mueller Hinton broth; type: cell-based, Mycobacterium smegmatis
# [7] = system: carbapenem-resistant P. aeruginosa clinical isolate CFS-1292; test: MIC by modified CLSI broth microdilution against P. aeruginosa CFS-1292 (CAA, CAA + human serum); type: cell-based, Pseudomonas aeruginosa
# M. scrofulaceum = test: 45 hr MIC against M. scrofulaceum (NTM); type: cell-based, Mycobacterium scrofulaceum; conditions: M. scrofulaceum Prissick and Masson ATCC 19981
# [8] = Stability assessment in 100% CAA; type: in vitro ADME; design: unit not given beside the values
# Procedure: Stability was assessed after incubation in 100% human serum at 37° C. after 10 minutes, 1 hour, and 2 hours.
# Stability assessment was further conducted in 100% CAA and rabbit serum using the same methodology discussed above.
# Pseudomonas aeruginosa = test: microbe, parasite or virus in culture; type: cell-based; conditions: for MIC: CAA without human serum
# [9] = E. cloacae isolates (n per peptide in table)
# [10] = E. coli isolates (n per peptide in table)
# [11] = K. pneumoniae isolates (n per peptide in table)
# [12] = A. baumannii isolates (n per peptide in table)
# [13] = P. aeruginosa isolates (n per peptide in table)
sequence,measurement,setting,value
MARSRRRMSKRSSRRSFRKYAKSHKKNFKARSMRGGIRL [Ecp2],45 hr MIC,M. intracellulare,8 µg/mL
same,Fold change in MIC,[1]; CAA + 140 mM NaCl versus CAA without added NaCl,8
same,"MIC, CAA + 140 mM NaCl","[1]; CAA + 140 mM NaCl, P. aeruginosa CFS-1292",2 µg/mL
same,"MIC, CAA (no added NaCl)","[1]; CAA, no added NaCl, P. aeruginosa CFS-1292",0.25 µg/mL
same,MIC50,S. maltophilia,8 µg/mL
same,MIC100,S. maltophilia,>8 µg/mL
same,MIC,[2]; Mycobacterium tuberculosis (Zopf) Lehmann and Neumann ATCC 25177,32 µg/mL
same,MIC,[2]; Mycobacterium tuberculosis (Zopf) Lehmann and Neumann ATCC 35817,8 µg/mL
same,45 hr MIC,[3],2 µg/mL
same,MIC50,Enterobacter cloacae; [9],0.25 µg/mL
same,MIC100,Enterobacter cloacae; [9],0.5 µg/mL
same,MIC Range,Enterobacter cloacae; [9],0.125 to 2 µg/mL
same,MIC,"Enterobacter cloacae; Enterobacter cloacae (ATCC 13047, MIC control strain), RSC 1240, CAA without human serum",4 µg/mL
same,MIC,"Enterobacter cloacae; Enterobacter cloacae ATCC 13047, CAA supplemented with human serum",16 µg/mL
same,MIC,"Escherichia coli; E. coli (ATCC 25922, MIC control strain), RSC 813, CAA without human serum",2 µg/mL
same,MIC,"Escherichia coli; E. coli (HM346, colon, Crohn's disease), RSC 1212, CAA without human serum",4 µg/mL
same,MIC50,Escherichia coli; [10],0.5 µg/mL
same,MIC100,Escherichia coli; [10],1 µg/mL
same,MIC Range,Escherichia coli; [10],0.24 to 4 µg/mL
same,MIC,"Escherichia coli; Escherichia coli ATCC 25922, CAA supplemented with human serum",0.5 µg/mL
same,MIC50,Klebsiella pneumoniae [4]; [11],0.5 µg/mL
same,MIC100,Klebsiella pneumoniae [4]; [11],1 µg/mL
same,MIC Range,Klebsiella pneumoniae [4]; [11],0.5 to 1 µg/mL
same,MIC,"Klebsiella pneumoniae [4]; Klebsiella pneumoniae HM-44, CAA supplemented with human serum",0.25 µg/mL
same,MIC,"Klebsiella pneumoniae [5]; Klebsiella pneumoniae (ATCC 10031, MIC control strain), RSC 814",4 µg/mL
same,MIC,"Klebsiella pneumoniae [5]; Klebsiella pneumoniae (g2-3 HM35K), RSC 1138",2 µg/mL
same,MIC,"Klebsiella pneumoniae [5]; Klebsiella sp. (HM-44; colon, Crohn's disease), RSC 1139",4 µg/mL
same,MIC,"Klebsiella pneumoniae [5]; Klebsiella spp. (HM-223; gut of Crohn's disease patient), RSC 1131",2 µg/mL
same,MIC,[6]; carbapenem-resistant isolate PA19,0.5 µg/mL
same,MIC,[6]; carbapenem-resistant isolate PA20,8 µg/mL
same,MIC,[6]; carbapenem-resistant isolate PA21,8 µg/mL
same,MIC,[6]; carbapenem-resistant isolate PA22,4 µg/mL
same,MIC,[6]; carbapenem-resistant isolate PA23,2 µg/mL
same,MIC,[6]; carbapenem-resistant isolate PA24,2 µg/mL
same,MIC,[6]; carbapenem-resistant isolate WLC-452,1 µg/mL
same,45 hr MIC,M. avium,2 µg/mL
same,45 hr MIC,M. fortuitum,4 µg/mL
same,MIC50,Acinetobacter baumannii; [12],0.25 µg/mL
same,MIC100,Acinetobacter baumannii; [12],0.5 µg/mL
same,MIC Range,Acinetobacter baumannii; [12],0.125 to 0.5 µg/mL
same,MIC,"Acinetobacter baumannii; Acinetobacter baumannii (clinical isolate HSS), RSC 30, CAA without human serum",2 µg/mL
same,MIC,"Acinetobacter baumannii; Acinetobacter baumannii (clinical isolate HSS), RSC 32, CAA without human serum",2 µg/mL
same,MIC,"Acinetobacter baumannii; Acinetobacter baumannii ATCC BAA 747, CAA supplemented with human serum",1 µg/mL
same,45 hr MIC,"M. smegmatis; M. smegmatis MC^2 155, Run #1",4 µg/mL
same,45 hr MIC,"M. smegmatis; M. smegmatis MC^2 155, Run #2",8 µg/mL
same,MIC (μg/mL) against CFS-1292 in 100% CAA (1st run/2nd run),"[7]; 100% CAA, 1st run or single value",0.25 µg/mL
same,MIC (μg/mL) against CFS-1292 in CAA + […] human serum,[7]; CAA + […] human serum,0.25 µg/mL
same,45 hr MIC,M. scrofulaceum,4 µg/mL
same,MIC (100% CAA),[8],0.25
same,MIC,"Pseudomonas aeruginosa; P. aeruginosa 453 (Human clinical isolate, HSS), RSC 1292",8 µg/mL
same,MIC,"Pseudomonas aeruginosa; P. aeruginosa (ATCC 14213, human hip wound), RSC 1111",4 µg/mL
same,MIC,"Pseudomonas aeruginosa; P. aeruginosa (ATCC 15152, abscess in middle ear), RSC 1110",1 µg/mL
same,MIC,"Pseudomonas aeruginosa; P. aeruginosa (ATCC 15692, infected wound), RSC 489",2 µg/mL
same,MIC,"Pseudomonas aeruginosa; P. aeruginosa (ATCC 15692, infected wound), RSC 1115",8 µg/mL
same,MIC,"Pseudomonas aeruginosa; P. aeruginosa (ATCC 17646, human liver abscess), RSC 1109",4 µg/mL
same,MIC,"Pseudomonas aeruginosa; P. aeruginosa (ATCC 19142, tracheobronchial secretion), RSC 1108",4 µg/mL
same,MIC,"Pseudomonas aeruginosa; P. aeruginosa (ATCC 25102, bacteriophage host), RSC 1114",2 µg/mL
same,MIC,"Pseudomonas aeruginosa; P. aeruginosa (ATCC 27853, MIC control strain), RSC 815",2 µg/mL
same,MIC,"Pseudomonas aeruginosa; P. aeruginosa (ATCC BAA-27, lab strain), RSC 1113",2 µg/mL
same,MIC,"Pseudomonas aeruginosa; P. aeruginosa (PAO1, alternate source, HER1018), RSC 490",2 µg/mL
same,MIC50,Pseudomonas aeruginosa; [13],2 µg/mL
same,MIC100,Pseudomonas aeruginosa; [13],8 µg/mL
same,MIC Range,Pseudomonas aeruginosa; [13],0.5 to 8 µg/mL
